Source: patent US20250041429A1, “COMPOUND HAVING BTK PROTEIN DEGRADATION ACTIVITY, AND MEDICAL USES THEREOF” (UBIX THERAPEUTICS, INC., priority 2021, published 2025)

Biological target: T1, BTK protein (Homo sapiens, UniProt Q06187)
T1 construct: endogenous in cells; host or cells: TMD-8 cells
Assay: Measurement of BTK protein degradation ability in TMD-8 cells (Western blotting)
Assay type: cell-based
Details: harvested after 24 hours; for BTK degradation (%) 1 nM: compound 1 nM; for BTK degradation (%) 10 nM: compound 10 nM; for BTK degradation (%) 100 nM: compound 100 nM
How it was run: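 BTK levels were measured by immunoblotting of equal-protein RIPA lysates, normalized to GAPDH or β-actin, with chemiluminescent or infrared detection. Lysates came from TMD-8 cells exposed to compound for 24 h at final concentrations of 0.1, 1, 10 μM or 0.0001–0.1 μM, against a DMSO control.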

T1 sequence (Q06187 whole entry): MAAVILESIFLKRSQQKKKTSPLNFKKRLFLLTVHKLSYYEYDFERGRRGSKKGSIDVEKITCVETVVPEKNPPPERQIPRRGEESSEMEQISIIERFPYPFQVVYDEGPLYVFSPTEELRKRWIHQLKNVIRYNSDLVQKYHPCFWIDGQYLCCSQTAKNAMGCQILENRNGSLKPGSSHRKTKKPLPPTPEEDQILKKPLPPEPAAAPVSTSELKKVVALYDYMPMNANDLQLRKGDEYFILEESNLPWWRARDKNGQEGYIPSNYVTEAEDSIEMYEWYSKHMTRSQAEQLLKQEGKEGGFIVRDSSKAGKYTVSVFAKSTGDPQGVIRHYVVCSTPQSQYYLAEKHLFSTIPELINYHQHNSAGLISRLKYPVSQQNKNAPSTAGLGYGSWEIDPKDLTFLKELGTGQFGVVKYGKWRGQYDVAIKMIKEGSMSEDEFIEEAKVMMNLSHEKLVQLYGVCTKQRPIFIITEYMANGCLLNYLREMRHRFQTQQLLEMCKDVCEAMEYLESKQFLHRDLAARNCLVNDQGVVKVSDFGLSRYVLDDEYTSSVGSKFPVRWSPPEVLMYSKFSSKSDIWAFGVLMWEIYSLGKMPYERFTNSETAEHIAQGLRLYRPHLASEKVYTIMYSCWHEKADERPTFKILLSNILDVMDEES

Row | Compound | BTK degradation (%) 1 nM [%] | BTK degradation (%) 10 nM [%] | BTK degradation (%) 100 nM [%]
1 | Cc1cc(-c2ccnc(Nc3ccc(N4CCC(CN5CCC(c6ccc(NC7CCC(=O)NC7=O)cc6)CC5)CC4)nc3)n2)ccc1CNC(=O)N1CC(OC(C)C)C1 (centres unmarked) [Example 145, N-(4-(2-((6-(4-((4-(4-((2,6-dioxopiperidin-3-yl)amino)phenyl)piperidin-1-yl)methyl)piperidin-1-yl)pyridin-3-yl)amino)pyrimidin-4-yl)-2-methylbenzyl)-3-isopropoxyazetidine-1-carboxamide] | 27.5 | 85.0 | 99.0
2 | Cc1c(NC(=O)c2cn(C(C)(C)C)nn2)cc(F)cc1-c1ccnc(Nc2ccc3c(c2)CN(CC2CCN(c4ccc5c(c4)C(=O)N(C4CCC(=O)NC4=O)C5=O)CC2)CC3)n1 (centres unmarked) [Example 6, 1-(tert-butyl)-N-(3-(2-((2-((1-(2-(2,6-dioxopiperidin-3-yl)-1,3-dioxoisoindolin-5-yl)piperidin-4-yl)methyl)-1,2,3,4-tetrahydroisoquinolin-7-yl)amino)pyrimidin-4-yl)-5-fluoro-2-methylphenyl)-1H-1,2,3-triazole-4-carboxamide] |  | −2.5 | 10
3 | Cc1cc(-c2ccnc(Nc3ccc(N4CCN(CC5CCN(C(=O)c6cccc(OC7CCC(=O)NC7=O)c6)CC5)CC4)cc3)n2)ccc1CNC(=O)N1CC(OC(C)C)C1 (centres unmarked) [Example 102, N-(4-(2-((4-(4-((1-(3-((2,6-dioxopiperidin-3-yl)oxy)benzoyl)piperidin-4-yl)methyl)piperazin-1-yl)phenyl)amino)pyrimidin-4-yl)-2-methylbenzyl)-3-isopropoxyazetidine-1-carboxamide] | 19.0 | 82.5 | 94.0
4 | Cc1cc(-c2ccnc(Nc3ccc(C4CCN(CC5CN(c6ccc7c(c6)C(=O)N(C6CCC(=O)NC6=O)C7=O)C5)CC4)cc3)n2)ccc1CNC(=O)N1CC(OC(C)C)C1 (centres unmarked) [Example 16, N-(4-(2-((4-(1-((1-(2-(2,6-dioxopiperidin-3-yl)-1,3-dioxoisoindolin-5-yl)azetidin-3-yl)methyl)piperidin-4-yl)phenyl)amino)pyrimidin-4-yl)-2-methylbenzyl)-3-isopropoxyazetidine-1-carboxamide] | 59 | 93 | 98.5
5 | Cc1cc(-c2ccnc(Nc3ccc(C4CCN(CC5CCN(c6ccc7c(c6)C(=O)N(C6CCC(=O)NC6=O)C7=O)CC5)CC4)nc3)n2)ccc1CNC(=O)N1CC(OC(C)C)C1 (centres unmarked) [Example 19, N-(4-(2-((6-(1-((1-(2-(2,6-dioxopiperidin-3-yl)-1,3-dioxoisoindolin-5-yl)piperidin-4-yl)methyl)piperidin-4-yl)pyridin-3-yl)amino)pyrimidin-4-yl)-2-methylbenzyl)-3-isopropoxyazetidine-1-carboxamide] | 48 | 93 | 99
6 | Cc1cc(-c2ccnc(Nc3ccc(N4CCC(CN5CCN(c6ccc(NC7CCC(=O)NC7=O)cn6)CC5)CC4)cc3)n2)ccc1CNC(=O)c1cnn(C(C)(C)C)c1 (centres unmarked) [Example 131, 1-(tert-butyl)-N-(4-(2-((4-(4-((4-(5-((2,6-dioxopiperidin-3-yl)amino)pyridin-2-yl)piperazin-1-yl)methyl)piperidin-1-yl)phenyl)amino)pyrimidin-4-yl)-2-methylbenzyl)-1H-pyrazole-4-carboxamide] | 59.5 | 96.0 | 100.0
7 | Cc1cc(-c2ccnc(Nc3ccc(N4CCC(CN5CCN(c6ccc(NC7CCC(=O)NC7=O)cn6)CC5)CC4)cc3)n2)ccc1CNC(=O)N1CC(OC(C)C)C1 (centres unmarked) [Example 127, N-(4-(2-((4-(4-((4-(5-((2,6-dioxopiperidin-3-yl)amino)pyridin-2-yl)piperazin-1-yl)methyl)piperidin-1-yl)phenyl)amino)pyrimidin-4-yl)-2-methylbenzyl)-3-isopropoxyazetidine-1-carboxamide] | 43.3 | 94.0 | 99.3
